Entries after “also recorded” stand apart in the source; their conditions may differ.
Experiments:
MCF-7/ACC115 cells = assay: Adherens junction morphology upon fulvestrant in MCF-7/ACC115 cells; assay type: cell-based, human; settings: 10^−8 M, 48 h
Experimental: Next, the inventors tried to reproduce the effects obtained with the cells as deposited under DSM ACC3321 with other conventional MCF-7 cells, namely MCF-7/BOS provided by Prof. Ana Soto (Tufts University School of Medicine, Boston, Mass., USA) and the MCF-7/ACC115 clone obtained from the Leibniz-Institut DSMZ-Deutsche Sammlung von Mikroorganismen and Zellkulturen GmbH (Braunschweig, Germany).
Briefly, the MCF-7 cells were seeded and grown on glass coverslips in multi-well tissue culture plates (TPP) for 24 h to reach near 100% confluence and then treated for at least 48 h with 0.1% EtOH (solvent control) and the ERα antagonist fulvestrant (Sigma-Aldrich, CAS-No. 129453-61-8) at a concentration of 10^−8 M. During experiments, medium was exchanged on a daily basis. All experiments were performed at 37° C. with 5% CO2 in reduced-serum medium (phenol red-free DMEM (Gibco), 5% FBS (Biochrom, S 0615, LOT1353 W), 1% glutamine, 100 μg/ml streptomycin/100 U/ml penicillin (Biochrom)).

[1] = system: MCF7/vBOS cells (DSM ACC3321); assay: Formation of discontinuous basolateral adherens junctions upon anti-estrogen exposure (E-Cadherin immunofluorescence); assay type: cell-based, human; settings: for formation of discontinuous adherens junctions (E-Cadherin staining): concentration and incubation time per compound as in FIGS. 1-3
Description: The time usually required for formation of discontinuous basolateral adherens junctions will depend on the estrogen receptor binding affinity and concentration of the anti-estrogen used on the one hand and the cell used on the other hand, but a person skilled in the art will be readily capable of determining the appropriate time spans and concentration for a given anti-estrogen and cell. For example, if the cell is a cell as deposited under accession number DSM ACC3321, suitable concentration ranges and culture times for manifestation of the discontinuous basolateral adherens junctions phenotype in presence of fulvestrant, tamoxifen, ZK 164015, MPP dihydrochloride, and (Z)-4-hydroxytamoxifen, without being limited thereto, are:
MCF7/vBOS cells were grown on glass coverslips in multi-well tissue culture plates (TPP) for 24 h and then treated for at least 48 h with 0.1% EtOH (solvent control) and different concentrations (10^−11 M, 10^−10 M, 10^−9 M, 10^−8 M, 10^−7 M) of the ERα antagonist fulvestrant (Sigma-Aldrich, CAS-No. 129453-61-8). During experiments, medium was exchanged on a daily basis. All experiments were performed at 37° C. with 5% CO2 in reduced-serum medium (phenol red-free DMEM (Gibco), 5% FBS (Biochrom, S 0615, LOT1353 W), 1% glutamine, 100 μg/ml streptomycin/100 U/ml penicillin (Biochrom)).
After treatment with fulvestrant the adherens junction morphology of the cells was analysed by means of immunofluorescence microscopy. Briefly, cells were fixed with 3.7% formaldehyde in PBS for 15 min, permeabilized with 0.2% Triton X-100 in PBS for 30 min, and blocked with 5% FBS in PBS for 60 min (all steps at room temperature). Incubation with primary and secondary antibodies in PBS containing 1.5% BSA was carried out over night at 4° C. and for 1 h at room temperature, respectively. The following antibodies/dyes were used: anti-E-Cadherin (H-108, Santa Cruz); DAPI (Roche); secondary antibody conjugated to Cy3 (alternatives are, e.g.: Cy2, Alexa Fluor 488/555/647; all Invitrogen). The samples were then mounted in Dako fluorescence mounting medium (Dako) or VectaShield (Vector Labs). All images were acquired with an Axio Observer.Z1 widefield microscope equipped with an Apotome.2 device for optical sectioning using structured illumination (Zeiss). After 48 hours the fraction of cells displaying discontinuous adherens junctions was determined by CellProfiler/CellProfer-analyst software (see example 7).
In view of the results obtained with MCF7/vBOS cells upon exposure to fulvestrant the inventors speculated that a similar phenotype might be obtainable with other ERα antagonist as well. To test this hypothesis, the inventors used the ERα antagonists tamoxifen (Sigma-Aldrich, CAS-No. 10540-29-1), MPP dihydrochloride (Sigma-Aldrich, CAS-No. 911295-24-4), ZK164015 (Tocris, CAS-No. 177583-70-9), and (Z)-4-hydroxytamoxifen (Tocris, CAS-No. 68047-06-3). The same protocols as in example 2 were used with the following deviations: • Tamoxifen: Cells were grown for 24 h and then treated for 144 h with 10^−8 and 10^−6 M tamoxifen. • MPP dihydrochloride: Cells were grown for 24 h and then treated for 144 h with 10^−8 and 10^−6 M MPP dihydrochloride. • ZK164015: Cells were grown for 24 h and then treated for 48 h with 10^−9 and 10^−7 M ZK164015. • (Z)-4-hydroxytamoxifen: Cells were grown for 24 h and then treated for 72 h with 10^−9 and 10^−8 M (Z)-4-hydroxytamoxifen.
Subsequently, quantitative image analysis was performed using a pipeline that builds on the CellProfiler software (Carpenter et al., Genome Biol., 2006; 7(10):R100.) for segmentation and extraction of cellular parameters, and on the CellProfiler Analyst software (Jones et al., BMC Bioinformatics, 2008 Nov. 15; 9:482) for parameter-based classification of cells. In the segmentation process, primary objects (nuclei) were identified from DAPI staining by global thresholding using Otsu's method. […]

[2] = cell as deposited under DSM ACC3321

C[C@]12CC[C@@H]3c4ccc(O)cc4C[C@@H](CCCCCCCCC[S+]([O-])CCCC(F)(F)C(F)(F)F)[C@H]3[C@@H]1CC[C@@H]2O (some centres unmarked) [Fulvestrant]
adherens junctions morphology in absence and presence of fulvestrant (MCF-7/ACC115 cells): same continuous adherens junctions morphology
activity in this assay relative to tamoxifen, ZK164015, MPP or (Z)-4-hydroxytamoxifen [1]: more active
time after treatment within which discontinuous adherence junctions form [1]: two
time within which discontinuous basolateral adherens junctions have stably formed [1]: 28 to 48 h
stability of discontinuous basolateral adherens junctions without adding additional anti-estrogens ([1]; after stable formation): ≥ 72 h
Concentration (M) suitable for manifestation of the discontinuous basolateral adherens junctions phenotype [1, 2]: 10^−9-10^−7 M
Culture time (h) typically required for formation of discontinuous basolateral adherens junctions [1, 2]: 24 to 96 h
formation of discontinuous adherens junctions (E-Cadherin staining) [1]: triggers the formation of discontinuous adherence junctions
formation of discontinuous adherens junctions (E-Cadherin staining) ([1]; listed as fulvestrant): formation of discontinuous adherens junctions; also recorded: morphology changes
fraction of cells with continuous / discontinuous adherens junctions (CellProfiler quantification) ([1]; different concentrations, 48 hours): fraction of cells with continuous adherens junctions decreased while the fraction of cells with discontinuous adherens junctions increased
minimal concentration for appearance of discontinuous adherens junctions ([1]; treatment for 48 hours, 10^−11 to 10^−7 M tested): 10^−9 M
